Patent US20260091086A1, “POLYPEPTIDE COMBINATIONS AND USES THEREOF” (MEDIMMUNE LIMITED, priority 2024, published 2026)
Numbered stars: 1 amine (or outer) side, 2 acyl side, 3 side chain; on linkers, the order of the positions; unused ones are H or OH. Square brackets hold non-standard residues; d marks the D form. Side chains are listed from the residue outwards. Ends that are not written are not given here. * marks the point of attachment. C18 diacid = O=C(O)CCCCCCCCCCCCCCCCC(=O)*; γGlu = O=C(O)[C@H](CCC(=O)[*:2])N[*:1]; αMeF = C[C@](N)(Cc1ccccc1)C(=O)O; AEEA = NCCOCCOCC(=O)O; Aib = CC(C)(N)C(=O)O

Legend:
[1] = system: AMY3R/CTR; test: Relative potency ratio, cAMP accumulation assays with 0.1% BSA, rat receptors; format: cell-based; conditions: 0.1% bovine serum albumin, n ≥ 5; potencies relative to pramlintide 100%
Description: Target engagement was estimated in the following way for each compound. The maximum concentration (Cmax) after subcutaneous injection was measured in separate rat pharmacokinetic studies and was dose-adjusted to the tested dose levels when appropriate, assuming dose linearity. Plasma protein binding was determined in vitro using 3B Pharmaceutical's Escalate Equilibrium Shift Assay or an in-house Surface Plasmon Resonance (SPR) assay. Peptide in vitro potency was determined via HTRF CAMP accumulation assay using HEK293 cells recombinantly expressing the rat calcitonin receptor or rat amylin receptor (calcitonin receptor plus RAMP3) in saline buffer containing 0.1% bovine serum albumin. The in vitro potencies (IC50s) for amylin and calcitonin were adjusted to unbound values by taking into account the albumin concentration in the assay and fraction unbound data, according to an established method (Wan H and Bergström F (2007), High Throughput Screening of Drug-Protein Binding in Drug Discovery, Journal of Liquid Chromatography & Related Technologies, 30:5, 681-700; doi: 10.1080/10826070701190989). Finally, the target engagement was calculated as the unbound Cmax divided by the unbound IC50, both for amylin and calcitonin. The Emax model was defined as aversion=E0+Emax×(ENG^h/(ENG^h+ED50^h)), where E0 is the baseline aversion, Emax is the maximum induced aversion, ENG is the receptor engagement, and h is the slope (Hill) parameter. Parameter estimation was performed according to a maximum likelihood approach with an additive error model, incorporating data from all compounds simultaneously. Uncertainty of parameter estimates was determined by bootstrapping, sampling single measurements randomly with replacement within each experiment (N=500). Numeric analyses were performed in MATLAB (R2023b; The MathWorks, Natick, MA). The aversion data are given as mean and standard error (N=9-11 per group). In this experiment, the LAA/SARA1 was that of SEQ ID NO: 11, SARA2 was eloralintide, DACRA1 was cagrilintide, and DACRA2 was petrelintide.

[2] = system: AMY3R/CTR; test: Relative potency ratio, cAMP accumulation assays with 0.1% BSA, human receptors; format: cell-based; conditions: 0.1% bovine serum albumin, n ≥ 5; potencies relative to pramlintide 100%
[3] = molecular target: human amylin receptor 3 (hAMY3R; complex of hCTR and hRAMP3) (human); test: cell-based or functional assay
[4] = molecular target: rat amylin receptor (calcitonin receptor plus RAMP3) (rat) (UniProt P32214); test: cell-based or functional assay
[5] = system: DIO rats; test: Example 7: 28-day LAA and GLP/GIP dual agonist study; format: in vivo, rat; conditions: for body weight change: day 28
Description: Study Design: Male rats were fed a high-fat diet (45% kcal fat-D12451; Research Diets) or chow control matched diet (10% kcal fat-D12450K; […] Control rats were dosed SC with Vehicle. Body weight was monitored daily through-out study and body composition measured by EchoMRI at baseline (week-1) and end of study (week 4). […]

[6] = system: Wistar Han rats; test: Example 4: 3-month subcutaneous study, body weight; format: in vivo, rat; conditions: for Body Weight Comparison, Day 92 vs. Control Group 1 Day 92 / Body Weight Gain (Day 92 vs Day −1) / Mean Body Weight at Day 92: dose levels 0/5, Group 5
Description: Study Design: Male (9-11 weeks of age) and female (10-11 weeks of age) Wistar Han rats were SC administered with Vehicle/Vehicle (group 1—for LAA of SEQ ID NO: 11 and GLP-1/GCG of SEQ ID NO: 35), LAA of SEQ ID NO: 11 and GLP-1/GCG of SEQ ID NO: 35 (group 2—500 and 5 μg/kg respectively), LAA of SEQ ID NO: 11 and GLP-1/GCG of SEQ ID NO: 35 (group 3—2000 and 5 μg/kg respectively), SEQ ID NO: 11 and Vehicle for SEQ ID NO: 35 (group 4—2000 μg/kg and 0 μg/kg respectively), or Vehicle for SEQ ID NO: 11 and SEQ ID NO: 35 (group 5—0 and 5 μg/kg respectively) daily for 91 days. Dosing for LAA of SEQ ID NO: 11 was dose escalated with group 2 receiving 250 μg/kg from day 1-5 and 500 μg/kg for duration of study, and groups 3 and 4 receiving 250 μg/kg SEQ ID NO: 11 from day 1-5, 500 μg/kg SEQ ID NO: 11 from days 7-13 and 2000 μg/kg for duration of study. There was a n=10/group per gender.

[7] = GLP/GIP mono-treatment 2 nmol/kg
[8] = GLP/GIP mono-treatment 30 nmol/kg

human amylin receptor 3 (hAMY3R; complex of hCTR and hRAMP3) (human), sequence (chain, as listed by the source limits assumed, chain 1 of 2): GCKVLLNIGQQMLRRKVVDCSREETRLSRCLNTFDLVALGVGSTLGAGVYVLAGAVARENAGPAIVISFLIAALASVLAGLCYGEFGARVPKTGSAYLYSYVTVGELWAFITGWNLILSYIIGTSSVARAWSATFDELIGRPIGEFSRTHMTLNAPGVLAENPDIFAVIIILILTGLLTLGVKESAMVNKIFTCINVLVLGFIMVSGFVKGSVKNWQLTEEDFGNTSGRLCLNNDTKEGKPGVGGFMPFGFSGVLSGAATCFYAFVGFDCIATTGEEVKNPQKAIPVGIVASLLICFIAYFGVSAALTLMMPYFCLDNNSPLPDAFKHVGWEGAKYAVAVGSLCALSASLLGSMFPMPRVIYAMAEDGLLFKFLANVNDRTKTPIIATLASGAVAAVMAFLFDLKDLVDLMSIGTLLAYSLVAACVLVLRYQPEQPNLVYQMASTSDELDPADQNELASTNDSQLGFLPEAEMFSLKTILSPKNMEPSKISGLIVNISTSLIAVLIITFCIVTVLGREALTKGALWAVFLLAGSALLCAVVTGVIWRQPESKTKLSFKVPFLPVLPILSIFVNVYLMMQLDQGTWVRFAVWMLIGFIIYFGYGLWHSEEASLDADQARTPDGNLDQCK
human amylin receptor 3 (hAMY3R; complex of hCTR and hRAMP3) (human), sequence (chain, as listed by the source limits assumed, chain 2 of 2): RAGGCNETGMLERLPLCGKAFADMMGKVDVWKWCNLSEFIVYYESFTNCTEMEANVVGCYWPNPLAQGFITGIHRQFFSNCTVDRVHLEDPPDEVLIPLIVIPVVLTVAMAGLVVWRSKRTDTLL
rat amylin receptor (calcitonin receptor plus RAMP3) (rat), sequence (P32214 25-516, chain 1 of 2): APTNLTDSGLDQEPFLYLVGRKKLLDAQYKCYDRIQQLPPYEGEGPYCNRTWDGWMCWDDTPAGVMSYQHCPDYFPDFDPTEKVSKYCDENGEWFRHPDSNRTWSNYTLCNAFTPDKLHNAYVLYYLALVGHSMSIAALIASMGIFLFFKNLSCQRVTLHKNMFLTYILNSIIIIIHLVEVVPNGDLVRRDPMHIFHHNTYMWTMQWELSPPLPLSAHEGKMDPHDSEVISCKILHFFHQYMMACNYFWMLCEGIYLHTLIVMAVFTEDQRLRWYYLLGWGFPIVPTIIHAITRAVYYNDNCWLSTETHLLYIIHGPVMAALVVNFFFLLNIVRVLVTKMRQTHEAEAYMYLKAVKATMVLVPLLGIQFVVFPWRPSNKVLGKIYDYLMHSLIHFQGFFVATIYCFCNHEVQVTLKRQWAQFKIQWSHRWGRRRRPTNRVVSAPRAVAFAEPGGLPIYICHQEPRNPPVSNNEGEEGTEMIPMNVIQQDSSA
rat amylin receptor (calcitonin receptor plus RAMP3) (rat), sequence (Q9JJ73 23-147, chain 2 of 2, further chain): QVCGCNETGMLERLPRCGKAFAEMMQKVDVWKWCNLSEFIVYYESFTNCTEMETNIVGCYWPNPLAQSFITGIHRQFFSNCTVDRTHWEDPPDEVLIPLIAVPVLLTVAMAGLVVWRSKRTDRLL

Row | Relative potency ratio (AMY3R/CTR), Rat [1] | Relative potency ratio (AMY3R/CTR), Human [2] | Relative potency ratio (AMY3R/CTR), Human; cAMP accumulation assay, 0.1% BSA [3] | Relative potency ratio (AMY3R/CTR), Rat; cAMP accumulation assay, 0.1% BSA [4] | Molecule | other results
1 | 0.03 | 0.05 |  |  | petrelintide [DACRA 2] | 
2 |  |  | 0.05 | 0.03 | DACRA 2 (petrelintide) (peptide) | 
3 |  |  | 0.24 | 0.14 | SARA 2 (eloralintide) (peptide) | 
4 | 0.14 | 0.24 |  |  | eloralintide [SARA 2] | 
5 |  |  | 0.08 | 0.01 | DACRA 1 (cagrilintide) (peptide) | 

Second part, the molecule before the results:

Row | Molecule | Relative potency ratio (AMY3R/CTR), Rat [1] | Relative potency ratio (AMY3R/CTR), Human [2] | Relative potency ratio (AMY3R/CTR), Human; cAMP accumulation assay, 0.1% BSA [3] | Relative potency ratio (AMY3R/CTR), Rat; cAMP accumulation assay, 0.1% BSA [4] | other results
6 | hAmylin (from UniProt P10997 34-70) (peptide) |  |  | 1.8 | 0.9 | 
7 | tirzepatide [GLP/GIP] |  |  |  |  | change in lean mass (g) [5, 7]: no effect at 2 nmol/kg; change in lean mass (g) [5, 8]: significant reduction vs. vehicle; body weight change [5, 7]: −1.7%; body weight change [5, 8]: −8.9%; body weight change ([5]; mono-treatment 10 nmol/kg SC QD): −8.1%; change in fat mass (g) ([5]; end of study (week 4), EchoMRI, FIG. 6C): dose-dependent decrease in fat mass; change in lean mass (g) ([5]; end of study, EchoMRI, mono-treatment, FIG. 6D): dose-dependent decrease of lean mass
8 | CC[C@H](C)[C@H](NC(=O)[C@@H]1CCCN1C(=O)CNC(=O)[C@H](Cc1ccccc1)NC(=O)[C@H](CC(N)=O)NC(=O)[C@H](CC(N)=O)NC(=O)[C@H](CO)NC(=O)[C@H](CO)NC(=O)[C@H](Cc1c[nH]cn1)NC(=O)[C@@H](NC(=O)[C@H](CC(C)C)NC(=O)[C@H](Cc1ccccc1)NC(=O)[C@H](CC(N)=O)NC(=O)[C@H](C)NC(=O)[C@H](CC(C)C)NC(=O)[C@H](CCCNC(=N)N)NC(=O)[C@H](CCC(N)=O)NC(=O)[C@@H](NC(=O)[C@H](C)NC(=O)[C@@H]1CSSC[C@H](NC(=O)[C@@H](N)CCCCN)C(=O)N[C@@H](CC(N)=O)C(=O)N[C@@H]([C@@H](C)O)C(=O)N[C@@H](C)C(=O)N[C@@H]([C@@H](C)O)C(=O)N1)[C@@H](C)O)C(C)C)C(=O)N[C@@H](CC(C)C)C(=O)N1CCC[C@H]1C(=O)N1CCC[C@H]1C(=O)N[C@H](C(=O)N[C@@H](CC(N)=O)C(=O)N[C@H](C(=O)NCC(=O)N[C@@H](CO)C(=O)N[C@@H](CC(N)=O)C(=O)N[C@H](C(=O)N[C@@H](Cc1ccc(O)cc1)C(N)=O)[C@@H](C)O)C(C)C)[C@@H](C)O [Pramlintide] | 1.0 | 1.0 |  |  | 
9 | hAmylin: human amylin, non-lipidated (KCNTATCATQRLANFLVHSSNNFGAILSSTNVGSNTY; not fully specified (C-terminus, bridges); cysteine pairing not given here) | 0.9 | 1.8 |  |  | 
10 | H(Aib)QGTFTSDVSK(αMePhe)LDTK(O2Oc-O2Oc-γE-C18diacid)RARDFVQWLLE(Aib)G-acid (H[Aib]QGTFTSDVSK[αMeF]LDTK([AEEA-AEEA-γGlu-C18 diacid])RARDFVQWLLE[Aib]G-OH; N-terminus assumed; SMILES CC(C)C[C@H](NC(=O)[C@H](Cc1c[nH]c2ccccc12)NC(=O)[C@H](CCC(N)=O)NC(=O)[C@@H](NC(=O)[C@H](Cc1ccccc1)NC(=O)[C@H](CC(=O)O)NC(=O)[C@H](CCCNC(=N)N)NC(=O)[C@H](C)NC(=O)[C@H](CCCNC(=N)N)NC(=O)[C@H](CCCCNC(=O)COCCOCCNC(=O)COCCOCCNC(=O)CC[C@H](NC(=O)CCCCCCCCCCCCCCCCC(=O)O)C(=O)O)NC(=O)[C@@H](NC(=O)[C@H](CC(=O)O)NC(=O)[C@H](CC(C)C)NC(=O)[C@](C)(Cc1ccccc1)NC(=O)[C@H](CCCCN)NC(=O)[C@H](CO)NC(=O)[C@@H](NC(=O)[C@H](CC(=O)O)NC(=O)[C@H](CO)NC(=O)[C@@H](NC(=O)[C@H](Cc1ccccc1)NC(=O)[C@@H](NC(=O)CNC(=O)[C@H](CCC(N)=O)NC(=O)C(C)(C)NC(=O)[C@@H](N)Cc1c[nH]cn1)[C@@H](C)O)[C@@H](C)O)C(C)C)[C@@H](C)O)C(C)C)C(=O)N[C@@H](CC(C)C)C(=O)N[C@@H](CCC(=O)O)C(=O)NC(C)(C)C(=O)NCC(=O)O) [GLP-1/GCG of SEQ ID NO: 35] |  |  |  |  | Body weight at study day 92 vs Vehicle ([6]; both male and female, groups 2-5): significantly lower; Body Weight Comparison, Day 92 vs. Control Group 1 Day 92 ([6]; female): 90%; Body Weight Gain (Day 92 vs Day −1) ([6]; female): 112%; Mean Body Weight at Day 92 ([6]; female): 225.4 grams; Body Weight Comparison, Day 92 vs. Control Group 1 Day 92 ([6]; male): 80%; Body Weight Gain (Day 92 vs Day −1) ([6]; male): 119%; Mean Body Weight at Day 92 ([6]; male): 325.5 grams
